Values quoted from earlier work in patent US20070060557A1, “Superoxide dismutase mimics for the treatment of optic nerve and retinal damage” (priority 2003, published 2007).

Tests used:
[1] = tested on: light-induced retinal damage in albino rats; conditions: albino rats (Wang et al. 1995)
[2] = tested on: rat ocular ischemia-reperfusion model; conditions: intravitreal injections (Rios et al. 1999)

SMILES: CC1(C)CC(O)CC(C)(C)N1[O] [4-hydroxy-2,2,6,6-tetramethylpiperidine-1-oxyl]
- light-induced retinal damage [1]: inhibited light-induced retinal damage

SMILES: CNC(=S)NC [dimethylthiourea]
- functional protection [2]: 40%
